{"source": "ChEMBL document CHEMBL1201862", "about": "“PubChem BioAssay data set” (2004)", "assay_in_all_cases": "NCI anticancer screen, dose series, 48 h", "key": {"SK-MEL-5": {"system": "SK-MEL-5"}, "NCI/ADR-RES": {"system": "NCI/ADR-RES"}, "HCC 2998": {"system": "HCC 2998"}, "OVCAR-3": {"system": "OVCAR-3"}, "SW-620": {"system": "SW-620"}, "NCI-H226": {"system": "NCI-H226"}, "HOP-62": {"system": "HOP-62"}, "CCRF-CEM": {"system": "CCRF-CEM"}, "MCF7": {"system": "MCF7"}, "HOP-92": {"system": "HOP-92"}, "TK-10": {"system": "TK-10"}, "NCI-H23": {"system": "NCI-H23"}, "HCT-116": {"system": "HCT-116"}, "SK-MEL-2": {"system": "SK-MEL-2"}, "SR": {"system": "SR"}, "RXF 393": {"system": "RXF 393"}, "MOLT-4": {"system": "MOLT-4"}, "M14": {"system": "M14"}, "A549": {"system": "A549"}, "NCI-H460": {"system": "NCI-H460"}, "UACC-257": {"system": "UACC-257"}, "SK-OV-3": {"system": "SK-OV-3"}, "CAKI-1": {"system": "CAKI-1"}, "U-251": {"system": "U-251"}, "K562": {"system": "K562"}, "OVCAR-4": {"system": "OVCAR-4"}, "NCI-H522": {"system": "NCI-H522"}, "SNB-75": {"system": "SNB-75"}, "SN12C": {"system": "SN12C"}, "HT-29": {"system": "HT-29"}, "OVCAR-8": {"system": "OVCAR-8"}, "MDA-MB-435": {"system": "MDA-MB-435"}, "HCT-15": {"system": "HCT-15"}, "MDA-MB-231": {"system": "MDA-MB-231"}, "IGROV-1": {"system": "IGROV-1"}, "COLO 205": {"system": "COLO 205"}, "SK-MEL-28": {"system": "SK-MEL-28"}, "T47D": {"system": "T47D"}, "SF-539": {"system": "SF-539"}, "SF-268": {"system": "SF-268"}, "786-0": {"system": "786-0"}, "UACC-62": {"system": "UACC-62"}, "SF-295": {"system": "SF-295"}, "HL-60": {"system": "HL-60"}, "UO-31": {"system": "UO-31"}, "DU-145": {"system": "DU-145"}, "LOX IMVI": {"system": "LOX IMVI"}, "PC-3": {"system": "PC-3"}, "A498": {"system": "A498"}, "RPMI-8226": {"system": "RPMI-8226"}, "KM12": {"system": "KM12"}, "OVCAR-5": {"system": "OVCAR-5"}, "ACHN": {"system": "ACHN"}, "EKVX": {"system": "EKVX"}, "BT-549": {"system": "BT-549"}}, "note": "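1) Cells in 96-well plates. 2) Compound, 48 h, 5 concentrations. 3) Linear interpolation between surrounding doses. 4) Unreached endpoint = highest concentration. Abbreviation: GI50, concentration required for 50% inhibition of growth.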 The source made the active and inactive calls. No stated cut-off is given here; in the data, active = GI50 up to about 1.1 µM and inactive = higher.", "data": [{"smiles": "O=S(=O)(OI(O)CC(F)(F)F)C(F)(F)F", "values": [{"measurement": "GI50", "setting": "SK-MEL-5", "result": "> 100 µM (inactive)"}, {"measurement": "GI50", "setting": "NCI/ADR-RES", "result": "> 100 µM (inactive)"}, {"measurement": "GI50", "setting": "HCC 2998", "result": "> 100 µM (inactive)"}, {"measurement": "GI50", "setting": "OVCAR-3", "result": "> 100 µM (inactive)"}, {"measurement": "GI50", "setting": "SW-620", "result": "> 100 µM (inactive)"}, {"measurement": "GI50", "setting": "NCI-H226", "result": "> 100 µM (inactive)"}, {"measurement": "GI50", "setting": "HOP-62", "result": "> 100 µM (inactive)"}, {"measurement": "GI50", "setting": "CCRF-CEM", "result": "> 100 µM (inactive)"}, {"measurement": "GI50", "setting": "MCF7", "result": "> 100 µM (inactive)"}, {"measurement": "GI50", "setting": "HOP-92", "result": "> 100 µM (inactive)"}, {"measurement": "GI50", "setting": "TK-10", "result": "> 100 µM (inactive)"}, {"measurement": "GI50", "setting": "NCI-H23", "result": "> 100 µM (inactive)"}, {"measurement": "GI50", "setting": "HCT-116", "result": "> 100 µM (inactive)"}, {"measurement": "GI50", "setting": "SK-MEL-2", "result": "> 100 µM (inactive)"}, {"measurement": "GI50", "setting": "SR", "result": "> 100 µM (inactive)"}, {"measurement": "GI50", "setting": "RXF 393", "result": "> 100 µM (inactive)"}, {"measurement": "GI50", "setting": "MOLT-4", "result": "> 100 µM (inactive)"}, {"measurement": "GI50", "setting": "M14", "result": "> 100 µM (inactive)"}, {"measurement": "GI50", "setting": "A549", "result": "> 100 µM (inactive)"}, {"measurement": "GI50", "setting": "NCI-H460", "result": "> 100 µM (inactive)"}, {"measurement": "GI50", "setting": "UACC-257", "result": "> 100 µM (inactive)"}, {"measurement": "GI50", "setting": "SK-OV-3", "result": "> 100 µM (inactive)"}, {"measurement": "GI50", "setting": "CAKI-1", "result": "> 100 µM (inactive)"}, {"measurement": "GI50", "setting": "U-251", "result": "> 100 µM (inactive)"}, {"measurement": "GI50", "setting": "K562", "result": "> 100 µM (inactive)"}, {"measurement": "GI50", "setting": "OVCAR-4", "result": "> 100 µM (inactive)"}, {"measurement": "GI50", "setting": "NCI-H522", "result": "> 100 µM (inactive)"}, {"measurement": "GI50", "setting": "SNB-75", "result": "> 100 µM (inactive)"}, {"measurement": "GI50", "setting": "SN12C", "result": "> 100 µM (inactive)"}, {"measurement": "GI50", "setting": "HT-29", "result": "> 100 µM (inactive)"}, {"measurement": "GI50", "setting": "OVCAR-8", "result": "> 100 µM (inactive)"}, {"measurement": "GI50", "setting": "MDA-MB-435", "result": "> 100 µM (inactive)"}, {"measurement": "GI50", "setting": "HCT-15", "result": "> 100", "unit": "µM"}, {"measurement": "GI50", "setting": "MDA-MB-231", "result": "> 100 µM (inactive)"}, {"measurement": "GI50", "setting": "IGROV-1", "result": "> 100 µM (inactive)"}, {"measurement": "GI50", "setting": "COLO 205", "result": "> 100 µM (inactive)"}, {"measurement": "GI50", "setting": "SK-MEL-28", "result": "> 100 µM (inactive)"}, {"measurement": "GI50", "setting": "T47D", "result": "> 100 µM (inactive)"}, {"measurement": "GI50", "setting": "SF-539", "result": "> 100 µM (inactive)"}, {"measurement": "GI50", "setting": "SF-268", "result": "> 100 µM (inactive)"}, {"measurement": "GI50", "setting": "786-0", "result": "> 100 µM (inactive)"}, {"measurement": "GI50", "setting": "UACC-62", "result": "> 100 µM (inactive)"}, {"measurement": "GI50", "setting": "SF-295", "result": "> 100 µM (inactive)"}, {"measurement": "GI50", "setting": "HL-60", "result": "> 100 µM (inactive)"}, {"measurement": "GI50", "setting": "UO-31", "result": "> 100 µM (inactive)"}, {"measurement": "GI50", "setting": "DU-145", "result": "> 100 µM (inactive)"}, {"measurement": "GI50", "setting": "LOX IMVI", "result": "> 100 µM (inactive)"}, {"measurement": "GI50", "setting": "PC-3", "result": "> 100 µM (inactive)"}, {"measurement": "GI50", "setting": "A498", "result": "> 100 µM (inactive)"}, {"measurement": "GI50", "setting": "RPMI-8226", "result": "> 100 µM (inactive)"}, {"measurement": "GI50", "setting": "KM12", "result": "> 100 µM (inactive)"}, {"measurement": "GI50", "setting": "OVCAR-5", "result": "> 100 µM (inactive)"}, {"measurement": "GI50", "setting": "ACHN", "result": "> 100 µM (inactive)"}, {"measurement": "GI50", "setting": "EKVX", "result": "> 100 µM (inactive)"}, {"measurement": "GI50", "setting": "BT-549", "result": "> 100 µM (inactive)"}]}]}
